{"source": "paper PMC5626781", "about": "“A Potent Tartrate Resistant Acid Phosphatase Inhibitor to Study the Function of TRAP in Alveolar Macrophages” (Scientific Reports, 2017)", "key": {"[1]": {"target": "T1, TRAP activity in lysates of murine MPI alveolar macrophages (Mus musculus, UniProt Q05117)", "T1 construct": "endogenous in cells; host or cells: murine MPI alveolar-like macrophages", "T1 sequence (Q05117 23-327)": "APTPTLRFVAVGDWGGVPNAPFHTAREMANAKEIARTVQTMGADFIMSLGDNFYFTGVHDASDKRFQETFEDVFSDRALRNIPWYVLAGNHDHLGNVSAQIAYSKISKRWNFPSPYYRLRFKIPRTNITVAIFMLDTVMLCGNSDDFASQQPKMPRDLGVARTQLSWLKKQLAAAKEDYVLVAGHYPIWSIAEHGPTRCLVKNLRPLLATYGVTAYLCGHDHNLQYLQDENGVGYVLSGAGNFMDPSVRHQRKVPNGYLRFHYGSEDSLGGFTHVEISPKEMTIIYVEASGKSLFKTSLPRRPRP", "assay": "TRAP activity assay on MPI alveolar macrophage lysates", "type": "biochemical", "conditions": "cell lysates of murine MPI alveolar macrophages; mean ± standard error, n = 3", "experimental": "Mouse alveolar macrophage lysates were obtained by resuspending 500.000 MPI macrophages in 300 μl acetate buffer. Human lung lysates from COPD patients were used to test the inhibitor on human TRAP present in lung tissue. Lysates from in total 18 COPD patients were pooled (see Supplementary Table S3 for patient characteristics).\n(§1) AubipyOMe was tested in the range 0–40 μM with MPI cell lysates or pooled lung tissue lysates from COPD patients using a TRAP activity assay. Lysates were incubated at 37 °C for 30 min in the presence of PNPP solution (1:1 ratio). 1M NaOH was added to stop the reaction and absorption was measured at 410 nm with 490 nm as a reference value.\n(§2) The inhibitory effects of gold compounds were calculated as the ratio of absorbance between the treated and untreated wells. The IC50 values were calculated using nonlinear curve fitting with a variable slope in Graphpad Prism 6 (Graphpad Software, la Jolla, USA). An average IC50 of three independent experiments was calculated.\nIdentification of TRAP inhibitors […]\nInhibitor dilutions were prepared in acetate buffer from freshly prepared stock solutions (10 mM in DMSO). […] To stop the reaction, 1M NaOH was added and absorption at 410 nm, with 490 nm as a reference value, was measured using a spectrophotometer. […]\nThe inhibitory effects of gold compounds were calculated as the ratio of absorbance between the treated and untreated wells. […]"}, "RAW264.7 macrophages": {"tested_on": "RAW264.7 macrophages", "assay": "MTT assay", "type": "cell-based, mouse", "experimental": "The effect of AubipyOMe and NaAuCl4 on RAW264.7 cell growth was assessed with a classical MTT assay. The IC50 values were calculated using nonlinear curve fitting with a variable slope in Graphpad Prism 6 (Graphpad Software) An average IC50 of four independent experiments was calculated.\nas §1, with “0-40” for “0–40”, “assay. MPI lysates were diluted 1:1 and COPD tissue lysates 1:20 with acetate buffer and incubated with increasing concentrations inhibitor, that were prepared from freshly made stock solutions (10 mM in DMSO) and diluted with acetate buffer.” for “assay.”, “37° C” for “37 °C”\nas §2\nThe effect of AubipyOMe and NaAuCl4 on cell growth was assessed with a classical MTT assay.\nRAW264.7 macrophages were seeded in 96-well plates at a concentration of 10,000 cells/well and grown for 24h in complete medium. Compound dilutions were prepared in complete medium from a freshly prepared stock solution (10 mM in DMSO) and added to the wells (200 μl) to obtain a final concentration (0 to 100 μM). […] The optical density of each well was quantified in quadruplicate at 540 nm, using a multi-well plate reader, and the percentage of surviving cells was calculated from the ratio of absorbance between treated and untreated cells. The IC50 values were calculated using nonlinear curve fitting with a variable slope in Graphpad Prism 6 (Graphpad Software) An average"}, "other proteins": {"tested_on": "other proteins", "set-up": "method as in PMID 20162197, PMID 21370912", "conditions": "compared to TRAP isoforms; cited from earlier work"}}, "data": [{"smiles": "COc1ccnc(-c2cc(OC)ccn2)c1.F[P-](F)(F)(F)(F)F.[Cl][Au+][Cl]", "note": "[AubipyOMe, [Au(4,4′-dimethoxy-2,2′-bipyridine)Cl2][PF6]]", "values": [{"measurement": "IC50", "setting": "[1]", "value": "1700 ± 400", "unit": "nM"}, {"measurement": "IC50", "setting": "RAW264.7 macrophages; RAW264.7 macrophages, 72 h, n = 4, read-out: IC50 cytotoxicity", "value": "~35", "unit": "µM"}, {"measurement": "cytotoxic effects on RAW264.7 macrophages", "setting": "RAW264.7 macrophages; at concentrations around the TRAP IC50 values", "value": "no cytotoxic effects"}, {"measurement": "inhibitory effects on other proteins", "setting": "other proteins", "value": "extremely moderate"}]}]}
